This is an account of results in patent publication US7332501B2, “Indol-3-yl-carbonyl-spiro-piperidine derivatives as V1a receptor antagonists” (Hoffmann-La Roche Inc., priority 2005, dated 2008).

T1 sequence (P37288 whole entry): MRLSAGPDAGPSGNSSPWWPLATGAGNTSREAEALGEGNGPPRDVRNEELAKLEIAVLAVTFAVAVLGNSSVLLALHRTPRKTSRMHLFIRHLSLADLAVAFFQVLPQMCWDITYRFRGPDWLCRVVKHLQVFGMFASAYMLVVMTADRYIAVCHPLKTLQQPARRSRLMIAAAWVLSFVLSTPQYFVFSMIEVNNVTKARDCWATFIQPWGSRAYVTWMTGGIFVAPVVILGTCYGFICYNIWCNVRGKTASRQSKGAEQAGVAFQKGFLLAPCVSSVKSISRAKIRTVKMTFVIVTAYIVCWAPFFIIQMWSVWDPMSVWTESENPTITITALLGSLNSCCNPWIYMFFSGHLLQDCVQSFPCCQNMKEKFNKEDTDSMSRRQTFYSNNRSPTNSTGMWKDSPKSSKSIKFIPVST

The experiment concerns the target T1, human V1a receptor (Homo sapiens, UniProt P37288).
T1 construct: expressed in transfected cells; host or cells: HEK293 cells, transiently transfected; cell membranes
Nature of the experiment: human V1a receptor binding (3H-Vasopressin SPA, HEK293 membranes). As to conditions: displacement of 4 nM 3H-Vasopressin, membranes of HEK293 cells transiently transfected with human V1a receptor; Ki from IC50 by Cheng-Prussoff. In a few lines:
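Transiently transfected HEK293 membranes on yttrium silicate SPA beads in Tris binding buffer (120 mM NaCl, 5 mM KCl, 2 mM CaCl2, 10 mM MgCl2). 3H-vasopressin added as 4 nM working solution; excess cold vasopressin set non-specific binding. 1 h at room temperature, then counting; Ki from fitted IC50 via Cheng-Prusoff.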
For orientation: Ki means a dissociation constant, usually derived from enzyme kinetics or from competition with a known ligand. Read a low Ki as tighter binding. `CN(C)CCNC(=O)Cn1cc(C(=O)N2CCC3(CC2)OCc2ccccc23)c2ccc(Cl)cc21` [Example 249, 2-[6-Chloro-3-(1′H,3H-spiro[2-benzofuran-1,4′-piperidin]-1′-ylcarbonyl)-1H-indol-1-yl]-N-[2-(dimethylamino)ethyl]acetamide] displayed a Ki of 2.4 nM. Turning to `NC(=O)Cn1cc(C(=O)N2CCC3(CC2)OCc2ccccc23)c2ccc(Cl)cc21` [Example 250, 2-[6-Chloro-3-(1′H,3H-spiro[2-benzofuran-1,4′-piperidin]-1′-ylcarbonyl)-1H-indol-1-yl]acetamide], the affinity, expressed as Ki, was 4.1 nM. The molecule `CNCCNC(=O)Cn1cc(C(=O)N2CCC3(CC2)OCc2ccccc23)c2ccc(Cl)cc21` [Example 251, 2-[6-Chloro-3-(1′H,3H-spiro[2-benzofuran-1,4′-piperidin]-1′-ylcarbonyl)-1H-indol-1-yl]-N-[2-(methylamino)ethyl]acetamide] showed a Ki of 2.1 nM. `NCCNC(=O)Cn1cc(C(=O)N2CCC3(CC2)OCc2ccccc23)c2ccc(Cl)cc21` [Example 252, N-(2-Aminoethyl)-2-[6-chloro-3-(1′H,3H-spiro[2-benzofuran-1,4′-piperidin]-1′-ylcarbonyl)-1H-indol-1-yl]acetamide] returned a Ki of 2.3 nM. Turning to `NCCn1cc(C(=O)N2CCC3(CC2)OCc2ccccc23)c2ccc(Cl)cc21` [Example 253, 2-[6-Chloro-3-(1′H,3H-spiro[2-benzofuran-1,4′-piperidin]-1′-ylcarbonyl)-1H-indol-1-yl]ethanamine], affinity was put at a Ki of 7.7 nM. For `CNCCn1cc(C(=O)N2CCC3(CC2)OCc2ccccc23)c2ccc(Cl)cc21` [Example 254, 2-[6-Chloro-3-(1′H,3H-spiro[2-benzofuran-1,4′-piperidin]-1′-ylcarbonyl)-1H-indol-1-yl]-N-methylethanamine] the value was 1.9 nM.

Regarding `CNC(=O)Cn1cc(C(=O)N2CCC3(CC2)OCc2ccccc23)c2ccc(Cl)cc21` [Example 255, 2-[6-Chloro-3-(1′H,3H-spiro[2-benzofuran-1,4′-piperidin]-1′-ylcarbonyl)-1H-indol-1-yl]-N-methylacetamide], the Ki is 1.4 nM. Regarding `O=C(c1cn(CCN2CCOCC2)c2cc(Cl)ccc12)N1CCC2(CC1)OCc1ccccc12` [Example 256, 1′-{[6-Chloro-1-(2-morpholin-4-ylethyl)-1H-indol-3-yl]carbonyl}-3H-spiro[2-benzofuran-1,4′-piperidine]], the Ki stood at 2.4 nM. For the molecule `O=C(c1cn(CCCN2CCOCC2)c2cc(Cl)ccc12)N1CCC2(CC1)OCc1ccccc12` [Example 257, 1′-{[6-Chloro-1-(3-morpholin-4-ylpropyl)-1H-indol-3-yl]carbonyl}-3H-spiro[2-benzofuran-1,4′-piperidine]], the Ki amounted to 3.1 nM. `O=C(c1cn(CC2CO2)c2cc(Cl)ccc12)N1CCC2(CC1)OCc1ccccc12` (stereo not shown) [Example 258, 1′-{[6-Chloro-1-(oxiran-2-ylmethyl)-1H-indol-3-yl]carbonyl}-3H-spiro[2-benzofuran-1,4′-piperidine]] gave a Ki of 3.7 nM. Molecule `O=C(c1cn(CCO)c2cc(Cl)ccc12)N1CCC2(CC1)OCc1ccccc12` [Example 259, 2-[6-Chloro-3-(1′H,3H-spiro[2-benzofuran-1,4′-piperidin]-1′-ylcarbonyl)-1H-indol-1-yl]ethanol] returned a Ki of 2.6 nM.

On to `Cc1cc(Cn2cc(C(=O)N3CCC4(CC3)OCc3ccccc34)c3ccc(Cl)cc32)ccn1` [Example 260, 1′-({6-Chloro-1-[(2-methylpyridin-4-yl)methyl]-1H-indol-3-yl}carbonyl)-3H-spiro[2-benzofuran-1,4′-piperidine]], for which the Ki amounted to 2.8 nM. `O=C(c1cn(C[C@H]2CCCNC2)c2cc(Cl)ccc12)N1CCC2(CC1)OCc1ccccc12` [Example 261, 1′-({6-Chloro-1-[(3S)-piperidin-3-ylmethyl]-1H-indol-3-yl}carbonyl)-3H-spiro[2-benzofuran-1,4′-piperidine]] registered a Ki of 1.7 nM. `O=C(c1cn(CCNO)c2cc(Cl)ccc12)N1CCC2(CC1)OCc1ccccc12` [Example 262, 2-[6-Chloro-3-(1′H,3H-spiro[2-benzofuran-1,4′-piperidin]-1′-ylcarbonyl)-1H-indol-1-yl]-N-hydroxyethanamine] returned a Ki of 4.3 nM.

`O=C(c1cn(CC2CCOCC2)c2cc(Cl)ccc12)N1CCC2(CC1)OCc1ccccc12` [Example 263, 1′-{[6-Chloro-1-(tetrahydro-2H-pyran-4-ylmethyl)-1H-indol-3-yl]carbonyl}-3H-spiro[2-benzofuran-1,4′-piperidine]]: the Ki was 1.7 nM. `CN1CCC(Cn2cc(C(=O)N3CCC4(CC3)OCc3ccccc34)c3ccc(Cl)cc32)C1` (stereo not shown) [Example 264, 1′-({6-Chloro-1-[(1-methylpyrrolidin-3-yl)methyl]-1H-indol-3-yl}carbonyl)-3H-spiro[2-benzofuran-1,4′-piperidine]] showed a Ki of 1.8 nM.

The molecule `CN1CCC[C@H](Cn2cc(C(=O)N3CCC4(CC3)OCc3ccccc34)c3ccc(Cl)cc32)C1` [Example 265, 1′-[(6-Chloro-1-{[(3S)-1-methylpiperidin-3-yl]methyl}-1H-indol-3-yl)carbonyl]-3H-spiro[2-benzofuran-1,4′-piperidine]] came in with a Ki of 1.4 nM.

In the case of `O=C(c1cn(CC2CCNC2)c2cc(Cl)ccc12)N1CCC2(CC1)OCc1ccccc12` (stereo not shown) [Example 266, 1′-{[6-Chloro-1-(pyrrolidin-3-ylmethyl)-1H-indol-3-yl]carbonyl}-3H-spiro[2-benzofuran-1,4′-piperidine]], the Ki stood at 2.7 nM. For `CN1CCC[C@H]1Cn1cc(C(=O)N2CCC3(CC2)OCc2ccccc23)c2ccc(Cl)cc21` [Example 268] the value was 0.07 nM. `CN1CCC[C@@H]1Cn1cc(C(=O)N2CCC3(CC2)OCc2ccccc23)c2ccc(Cl)cc21` [Example 269]: the Ki was found to be 1 nM. In turn, `CC(=O)NCCn1cc(C(=O)N2CCC3(CC2)OCc2ccccc23)c2ccc(Cl)cc21` [Example 270, N-{2-[6-Chloro-3-(1′H,3H-spiro[2-benzofuran-1,4′-piperidin]-1′-ylcarbonyl)-1H-indol-1-yl]ethyl}acetamide] registered a Ki of 1.3 nM. In turn, `CS(=O)(=O)NCCn1cc(C(=O)N2CCC3(CC2)OCc2ccccc23)c2ccc(Cl)cc21` [Example 271, N-{2-[6-Chloro-3-(1′H,3H-spiro[2-benzofuran-1,4′-piperidin]-1′-ylcarbonyl)-1H-indol-1-yl]ethyl}methanesulfonamide] gave a Ki of 1.5 nM. For `CC(=O)N(C)CCn1cc(C(=O)N2CCC3(CC2)OCc2ccccc23)c2ccc(Cl)cc21` [Example 272, N-{2-[6-Chloro-3-(1′H,3H-spiro[2-benzofuran-1,4′-piperidin]-1′-ylcarbonyl)-1H-indol-1-yl]ethyl}-N-methylacetamide], the affinity corresponds to a Ki of 1.3 nM. Then `CN(CCn1cc(C(=O)N2CCC3(CC2)OCc2ccccc23)c2ccc(Cl)cc21)S(C)(=O)=O` [Example 273, N-{2-[6-Chloro-3-(1′H,3H-spiro[2-benzofuran-1,4′-piperidin]-1′-ylcarbonyl)-1H-indol-1-yl]ethyl}-N-methylmethanesulfonamide], with 1.1 nM; and `CC(C)(C)OC(=O)N1CCn2c(c(C(=O)N3CCC4(CC3)OCc3ccccc34)c3ccccc32)C1` [Example 274, tert-Butyl 10-(1′H,3H-spiro[2-benzofuran-1,4′-piperidin]-1′-ylcarbonyl)-3,4-dihydropyrazino[1,2-a]indole-2(1H)-carboxylate], with 25.1 nM.
